Measured values published in US6274704A, “Peptides derived from the heparin binding domain of fibronectin” (Hisamitsu Pharmaceutical Co., Inc., priority 1996, dated 2001).
Ends that are not written are not given here.

Test system: A375 melanoma cell
Experiment: Cell adhesion inhibition activity of synthetic peptides (cell suspension includes the peptide)
Assay type: cell-based
Details: Concentration 200 μg/ml; adhesion to fibronectin-coated plate, 60 minutes, 0.2% DMSO
Method: The above synthetic peptides were used in this experiment after being dissolved in dimethyl sulfoxide (DMSO: Wako Jyunyaku Co.). To adjust a condition of each experiment to the same, DMSO was added into phosphate buffers containing urea-non-treated Hep 2 fragment, urea-treated Hep 2 fragment, GRGDSP peptide and phosphate buffer itself as a control, respectively. The concentration of DMSO of each experiment was adjusted to 0.2% of final concentration. Inhibition activity against cell adhesion was evaluated according to the method of Fukai et al. (Biochem. Biophys. Res. Commun., 220, 394-398, 1996). In other words, the inhibition activity against cell adhesion of A375 melanoma cell to a plate was measured under the condition with or without the above various synthetic peptides. A375 melanoma cell (American Type Culture Collection: ATCC) was suspended in Dulbecco's modified eagle medium (DMEM: Gibuco Co.) including 0.1% Ovalbumin (Wako Jyunyaku Co.) to be a concentration of 2×10^5 cells/ml. Before preparing cell suspension, a plate was coated with fibronectin according to the method of Miekka et al. Specifically, phosphate buffer containing 10 μg/ml of fibronectin (FN) was prepared and 100 μl of the resultant phosphate buffer containing fibronectin was added into each well of a 96-well plate and then the plate was incubated at 37° C., 5% CO2 concentration for 60 minutes before being washed with phosphate buffer three times. Fibronectin (FN) was purified according to the method of Miekka et al. (Thromb. Res., 27, 1-14, 1982). One hundred (100) μl of the above cell suspension was added into each well of the plate and the plate was incubated at 37° C., 5% CO2 concentration for 60 minutes (Control was without any synthetic peptide). After fixing cells in each well with 5% of formaldehyde (Wako Jyunyaku Co.), non adhesion cells were removed and calls in five areas selected at random in each well were counted by the use of a microscope.
The addition of Hep 2 fragment and each peptide was carried out by the step in which a solution containing Hep 2 fragment or each peptides dissolved with high concentration was added to the cell suspension to obtain the final concentration of Hep 2 fragment or each peptides shown in Table 1.

Substance | Cell adhesion inhibition activity [%]
III 13-3: peptide consisting of SEQ ID NO:6, part of Hep 2 fragment (SYTITGLQPGTDYKIYLYTLNDNAR) | 9
III 12-2: peptide consisting of SEQ ID NO:2, part of Hep 2 fragment (INLAPDSSSVVVSGLMVATKWE) | 13
III 13-2: peptide consisting of SEQ ID NO:5, part of Hep 2 fragment (TGFQVDAVPANGQTPIQRTIKPDVR) | 11
III 12-3: peptide consisting of SEQ ID NO:3, part of Hep 2 fragment (VSVYALKDTLTSRPAQGVVTTLE) | 7
III 13-1: peptide consisting of SEQ ID NO:4, part of Hep 2 fragment (NVSPPRRARVTDATETTITISWRTKTETI) | 4
III 14-1: peptide consisting of SEQ ID NO:7, part of Hep 2 fragment (NLRFLATTPNSLLVSWQPPRARITGYIIK) | 11
III 12-1: peptide consisting of SEQ ID NO:1, part of Hep 2 fragment (AIPAPTDLKFTQVTPTSLSAQWTPPNVQLTG) | 11

Test system: A375 melanoma cell
Experiment: Cell adhesion inhibition activity (plate coated with fibronectin solution containing KLH modified synthetic peptide)
Assay type: cell-based
Details: Experiment 2, KLH modified peptides coated with fibronectin, FIG. 3
Method: The above various KLH modified synthetic peptides were added to a solution containing fibronectin to obtain a given concentration, then the procedure of Experiment 1 were repeated with the exception that the resultant solution were added into 96-well plate to coat it. The experiment without any synthetic peptide is a control (the concentration of a peptide was 0 μg/m 1).

Substance | cell adhesion inhibition activity (in words)
III 14-2C: peptide of sequence ID NO:12, a part of peptide III 14-2; tested KLH modified (YTIYVIALKNNQK; also: KLH conjugated) | the same strong cell adhesion inhibition activity as that of the peptide III 14-2
III 14-2A: peptide of sequence ID NO:10, a part of peptide III 14-2; tested KLH modified (RPRPGVTEATITG; also: KLH conjugated) | very little cell adhesion inhibition activity
III 14-2B: peptide of sequence ID NO:11, a part of peptide III 14-2; tested KLH modified (LEPGTEYTIYVIALKNNQK; also: KLH conjugated) | the same strong cell adhesion inhibition activity as that of the peptide III 14-2

Test system: melanoma cell
Experiment: not given
Details: in vivo; cited from earlier work

Substance | inhibition of experimental metastasis of melanoma cell to lung
GRGDS | inhibits experimental metastasis of melanoma cell to lung
